Experimental data taken from PubChem BioAssay (NCI).
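Assay format: 96-well plates, 48-hour exposure. At the TGI there is no net growth.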

Legend:
Test in all cases: DTP human tumour cell line panel, 48 h
[1] = tested on: NCI-H460 lung
[2] = tested on: LOX IMVI melanoma
[3] = tested on: SN12C renal
[4] = tested on: PC-3 prostate
[5] = tested on: NCI/ADR-RES ovarian
[6] = tested on: IGROV1 ovarian
[7] = tested on: U251 CNS
[8] = tested on: RXF 393 renal
[9] = tested on: OVCAR-3 ovarian
[10] = tested on: SK-MEL-5 melanoma
[11] = tested on: CCRF-CEM leukemia
[12] = tested on: NCI-H226 lung
[13] = tested on: SK-OV-3 ovarian
[14] = tested on: TK-10 renal
[15] = tested on: SNB-75 CNS
[16] = tested on: SF-295 CNS
[17] = tested on: OVCAR-5 ovarian
[18] = tested on: RPMI-8226 leukemia
[19] = tested on: HCT-116 colon
[20] = tested on: SW-620 colon
[21] = tested on: OVCAR-8 ovarian
[22] = tested on: SNB-19 CNS
[23] = tested on: BT-549 breast
[24] = tested on: A549 NSCLC
[25] = tested on: OVCAR-4 ovarian
[26] = tested on: 786-0 renal
[27] = tested on: MALME-3M melanoma
[28] = tested on: SK-MEL-2 melanoma
[29] = tested on: MDA-MB-231 breast
[30] = tested on: EKVX NSCLC
[31] = tested on: MCF7 breast
[32] = tested on: NCI-H23 lung
[33] = tested on: K-562 leukemia
[34] = tested on: HOP-92 NSCLC
[35] = tested on: HCC-2998 colon
[36] = tested on: M14 melanoma
[37] = tested on: COLO 205 colon
[38] = tested on: HCT-15 colon
[39] = tested on: T-47D breast
[40] = tested on: SF-539 CNS
[41] = tested on: DU-145 prostate
[42] = tested on: ACHN renal
[43] = tested on: HL-60(TB) leukemia
[44] = tested on: HOP-62 NSCLC
[45] = tested on: SR leukemia
[46] = tested on: HT29 colon
[47] = tested on: UACC-62 melanoma
[48] = tested on: MOLT-4 leukemia
[49] = tested on: UACC-257 melanoma
[50] = tested on: UO-31 renal
[51] = tested on: HS 578T breast
[52] = tested on: SK-MEL-28 melanoma
[53] = tested on: SF-268 CNS
[54] = tested on: CAKI-1 renal
[55] = tested on: KM12 colon
[56] = tested on: A498 renal
[57] = tested on: NCI-H522 lung
[58] = tested on: MDA-MB-435

SMILES: O=C1Nc2ccccc2/C1=C\c1c(Cl)n(-c2ccccc2)c2ccccc12
- TGI [1]: 21.7 µM
- TGI [2]: 17.8 µM
- TGI [3]: 14.6 µM
- TGI [4]: 60.3 µM
- TGI [5]: 8.67 µM
- TGI [6]: 9.64 µM
- TGI [7]: 18.2 µM
- TGI [8]: 10.9 µM
- TGI [9]: 4.86 µM
- TGI [10]: 17.5 µM
- TGI [11]: > 100 µM
- TGI [12]: 12.2 µM
- TGI [13]: 24 µM
- TGI [14]: 27 µM
- TGI [15]: 7.03 µM
- TGI [16]: 15.6 µM
- TGI [17]: 12.9 µM
- TGI [18]: > 100 µM
- TGI [19]: 6.26 µM
- TGI [20]: > 100 µM
- TGI [21]: 40.8 µM
- TGI [22]: 13.3 µM
- TGI [23]: 29.8 µM
- TGI [24]: 25 µM
- TGI [25]: 21.6 µM
- TGI [26]: 7.71 µM
- TGI [27]: 10.4 µM
- TGI [28]: 36.3 µM
- TGI [29]: 13.7 µM
- TGI [30]: 7.7 µM
- TGI [31]: 88 µM
- TGI [32]: 14 µM
- TGI [33]: > 100 µM
- TGI [34]: 7.63 µM
- TGI [35]: 9.83 µM
- TGI [36]: 10.1 µM
- TGI [37]: 4.13 µM
- TGI [38]: 18.1 µM
- TGI [39]: 56.7 µM
- TGI [40]: 18.4 µM
- TGI [41]: 8.91 µM
- TGI [42]: 29.7 µM
- TGI [43]: > 100 µM
- TGI [44]: 20.6 µM
- TGI [45]: > 100 µM
- TGI [46]: 6.46 µM
- TGI [47]: 66.7 µM
- TGI [48]: > 100 µM
- TGI [49]: 36.5 µM
- TGI [50]: 16 µM
- TGI [51]: 5.71 µM
- TGI [52]: > 100 µM
- TGI [53]: 6.45 µM
- TGI [54]: 21.9 µM
- TGI [55]: 14 µM
- TGI [56]: 22.2 µM

SMILES: C=C1CCC[C@@H](C)C(O)[C@@H]2OC(=O)C(=C)[C@@H]2C[C@@H](OC(C)=O)[C@@]2(C)CC[C@@H]1O2 (stereo not given in full)
- TGI [3]: 16 µM
- TGI [4]: 16.2 µM
- TGI [5]: 19.3 µM
- TGI [6]: 15.4 µM
- TGI [7]: 17.8 µM
- TGI [8]: 12.9 µM
- TGI [9]: 11.5 µM
- TGI [10]: 13.7 µM
- TGI [11]: 6.8 µM
- TGI [12]: 16 µM
- TGI [57]: 4.93 µM
- TGI [13]: 40.8 µM
- TGI [14]: 14.8 µM
- TGI [58]: 15.1 µM
- TGI [15]: 10.1 µM
- TGI [16]: 38.5 µM
- TGI [17]: 16.1 µM
- TGI [18]: > 50 µM
- TGI [19]: 13.8 µM
- TGI [20]: 16.7 µM
- TGI [21]: 16.4 µM
- TGI [22]: > 50 µM
- TGI [23]: 14.4 µM
- TGI [24]: > 50 µM
- TGI [25]: 36.7 µM
- TGI [26]: 20.1 µM
- TGI [28]: 15.8 µM
- TGI [29]: 16.3 µM
- TGI [30]: 15.1 µM
- TGI [31]: 11.6 µM
- TGI [32]: 15.2 µM
- TGI [33]: 12.1 µM
- TGI [34]: 15 µM
- TGI [35]: 14.9 µM
- TGI [36]: 13.6 µM
- TGI [37]: 13.4 µM
- TGI [38]: 10.6 µM
- TGI [39]: 19.2 µM
- TGI [40]: 15.3 µM
- TGI [41]: 14.3 µM
- TGI [42]: 13.4 µM
- TGI [44]: 18.7 µM
- TGI [45]: 9.91 µM
- TGI [46]: 15.3 µM
- TGI [47]: 11.7 µM
- TGI [48]: 15.4 µM
- TGI [49]: 15.2 µM
- TGI [50]: 15.3 µM
- TGI [51]: 29.4 µM
- TGI [52]: 15.1 µM
- TGI [53]: 15.7 µM
- TGI [54]: 13.6 µM
- TGI [55]: 14.6 µM
- TGI [56]: 19.2 µM
